Laboratory results: patent publication US10597388B2, “Pyridazinone herbicides” (FMC CORPORATION, priority 2014, dated 2020)

Legend:
Assay type in all cases: in vivo
[1] = test system: dayflower (Virginia (VA) dayflower, Commelina virginica); assay: Test E greenhouse herbicide test, pre- and postemergence
Excerpt: (§1) Seeds of plant species selected from corn (Zea mays), soybean (Glycine max), velvetleaf (Abutilon theophrasti), lambsquarters (Chenopodium album), wild poinsettia (Euphorbia heterophylla), pigweed, palmer (palmer pigweed, Amaranthus palmeri), waterhemp (common waterhemp, Amaranthus rudis), surinam grass (Brachiaria decumbens), crabgrass, large (large crabgrass, Digitaria sanguinalis), crabgrass, Brazilian (Brazilian crabgrass, Digitaria horizontalis), panicum, fall (fall panicum, Panicum dichotomiflorum), foxtail, giant (giant foxtail, Setaria faberii), foxtail, green (green foxtail, Setaria viridis), goosegrass (Eleusine indica), johnsongrass (Sorghum halepense), ragweed (common ragweed, Ambrosia elatior), barnyardgrass (Echinochloa crus-galli), sandbur (southem sandbur, Cenchrus echinatus), arrowleaf sida (Sida rhombifolia), Italian ryegrass (Lolium multiflorum), dayflower (Virginia (VA) dayflower, Commelina virginica), field bindweed (Convolvulus arvensis), momingglory (Ipomoea coccinea), nightshade (eastern black nightshade, Solanum ptycanthum), kochia (Kochia scoparia), nutsedge, yellow (yellow nutsedge, Cyperus esculentus), horseweed (Conyza canadensis), and beggarticks (hairy beggarticks, Bidens pilosa), were planted into a silt loam soil and treated preemergence with test chemicals formulated in a non-phytotoxic solvent mixture which included a surfactant.
(§2) At the same time, plants from these crop and weed species and also waterhemp_RES1, (ALS & Triazine resistant common waterhemp, Amaranthus rudis), and waterhemp_RES2, (ALS & HPPD resistant common waterhemp, Amaranthus rudis) were planted in pots containing Redi-Earth® planting medium (Scotts Company, 14111 Scottslawn Road, Marysville, Ohio 43041) comprising spaghnum peat moss, vermiculite, wetting agent and starter nutrients were treated with postemergence applications of test chemicals formulated in the same manner. Plants ranged in height from 2 to 18 cm for postemergence treatments (1- to 4-leaf stage). Treated plants and controls were maintained in a greenhouse for 14 to 21 d, after which time all species were compared to controls and visually evaluated. Plant response ratings, summarized in Table E, are based on a scale of 0 to 100 where 0 is no effect and 100 is complete control. A dash (-) response means no test result.

[2] = test system: nightshade (eastern black nightshade, Solanum ptycanthum); assay: as above; conditions: Preemergence
Excerpt: as §1, §2

[3] = test system: soybean (Glycine max); assay: as above
Excerpt: as §1, §2

[4] = test system: sandbur (southem sandbur, Cenchrus echinatus); assay: as above
Excerpt: as §1, §2

[5] = test system: johnsongrass (Sorghum halepense); assay: as above; conditions: Preemergence
Excerpt: as §1, §2

[6] = test system: lambsquarters (Chenopodium album); assay: as above; conditions: Preemergence
Excerpt: as §1, §2

[7] = test system: surinam grass (Brachiaria decumbens); assay: as above; conditions: Preemergence
Excerpt: as §1, §2

[8] = test system: arrowleaf sida (Sida rhombifolia); assay: as above
Excerpt: as §1, §2

[9] = test system: waterhemp_RES1 (ALS & Triazine resistant common waterhemp, Amaranthus rudis); assay: Test E greenhouse herbicide test, postemergence
In short: (§3)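 Greenhouse test, 14–21 d after postemergence treatment of 2–18 cm plants; percent control was assessed visually, 0–100, against untreated plants.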

[10] = test system: waterhemp_RES2 (ALS & HPPD resistant common waterhemp, Amaranthus rudis); assay: Test E greenhouse herbicide test, postemergence
In short: as §3

[11] = test system: barley, winter (winter barley, Hordeum vulgare); assay: Test D controlled growth environment herbicide test, pre- and postemergence
In short: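 Rating is visual, 0–100 scale (100 = complete control), made against untreated plants 14–21 d after treatment in controlled growth conditions. Postemergence sprays went onto 1- to 4-leaf plants in peat medium; preemergence sprays onto silt loam after sowing; formulation included a surfactant.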

[12] = 62 g ai/ha, Postemergence, scale 0 to 100 (0 no effect, 100 complete control)
[13] = 62 g ai/ha, Preemergence, scale 0 to 100 (0 no effect, 100 complete control)
[14] = 125 g ai/ha, Postemergence, scale 0 to 100 (0 no effect, 100 complete control)
[15] = 250 g ai/ha, Postemergence, scale 0 to 100 (0 no effect, 100 complete control)
[16] = Postemergence, 31 g ai/ha, visual, scale 0 no effect to 100 complete control
[17] = Preemergence, 31 g ai/ha, scale 0 to 100, 0 no effect, 100 complete control
[18] = Preemergence, 125 g ai/ha, visual, scale 0 no effect to 100 complete control
[19] = Preemergence, 250 g ai/ha, visual, scale 0 no effect to 100 complete control
[20] = 62 g ai/ha, scale 0 to 100 (0 no effect, 100 complete control)
[21] = 125 g ai/ha, scale 0 to 100 (0 no effect, 100 complete control)
[22] = 31 g ai/ha, scale 0 to 100, 0 no effect, 100 complete control
[23] = 250 g ai/ha, visual, scale 0 no effect to 100 complete control
[24] = 125 g ai/ha, Preemergence, scale 0 to 100 (0 no effect, 100 complete control)
[25] = 125 g ai/ha, visual, scale 0 no effect to 100 complete control
[26] = 31 g ai/ha, visual, scale 0 no effect to 100 complete control
[27] = 250 g ai/ha, scale 0 to 100 (0 no effect, 100 complete control)

CC(=O)Oc1c(C)nn(C)c(=O)c1-c1c(C)sc2ccc(C)cc12 [Compound 25]
35: Plant response rating, Sandbur [4, 17]
90: Plant response rating, Nightshade [2, 22] | Plant response rating, Johnsongrass [5, 23] | Plant response rating, Surinam Grass [7, 21] | Plant response rating, Arrowleaf Sida [8, 18]
98: Plant response rating, Nightshade [2, 23] | Plant response rating, Lambsquarters [6, 22]
60: Plant response rating, Sandbur [4, 12] | Plant response rating, Johnsongrass [5, 20] | Plant response rating, Arrowleaf Sida [8, 16] | Plant response rating, Waterhemp_RES2 [10, 20]
40: Plant response rating, Dayflower, VA [1, 12] | Plant response rating, Arrowleaf Sida [8, 17]
50: Plant response rating, Dayflower, VA [1, 14] | Plant response rating, Sandbur [4, 16]
30: Plant response rating, Dayflower, VA [1, 19] | Plant response rating, Soybean [3, 14]
20: Plant response rating, Soybean [3, 12] | Barley, Winter plant response rating ([11]; Preemergence, 250 g ai/ha, scale 0 to 100 (0 no effect, 100 complete control))
100: Plant response rating, Lambsquarters [6, 20] | Plant response rating, Lambsquarters [6, 25] | Plant response rating, Lambsquarters [6, 23]
75: Plant response rating, Soybean [3, 15] | Plant response rating, Sandbur [4, 15] | Plant response rating, Johnsongrass [5, 22] | Plant response rating, Arrowleaf Sida [8, 12] | Plant response rating, Waterhemp_RES1 [9, 26] | Plant response rating, Waterhemp_RES2 [10, 27]
80: Plant response rating, Nightshade [2, 20] | Plant response rating, Sandbur [4, 24] | Plant response rating, Johnsongrass [5, 25] | Plant response rating, Surinam Grass [7, 20] | Plant response rating, Arrowleaf Sida [8, 13] | Plant response rating, Arrowleaf Sida [8, 14] | Plant response rating, Waterhemp_RES1 [9, 20]
65: Plant response rating, Dayflower, VA [1, 15] | Plant response rating, Sandbur [4, 13] | Plant response rating, Surinam Grass [7, 22]
95: Plant response rating, Nightshade [2, 21] | Plant response rating, Surinam Grass [7, 23] | Plant response rating, Arrowleaf Sida [8, 19] | Plant response rating, Waterhemp_RES1 [9, 27]
0: Plant response rating, Dayflower, VA [1, 17] | Plant response rating, Soybean [3, 24] | Plant response rating, Soybean [3, 16] | Plant response rating, Soybean [3, 17] | Plant response rating, Barley, Winter ([11]; Postemergence, 31 g ai/ha, scale 0 to 100 (0 no effect, 100 complete control)) | Plant response rating, Barley, Winter ([11]; Postemergence, 125 g ai/ha, visual rating on scale 0 (no effect) to 100 (complete control), 14 to 21 d) | Plant response rating (scale of 0 to 100), Barley, Winter ([11]; Preemergence, 31 g ai/ha) | Plant response rating, Barley, Winter ([11]; Preemergence, 62 g ai/ha, scale 0 to 100 (0 no effect, 100 complete control)) | Plant response rating, Barley, Winter ([11]; postemergence, 62 g ai/ha, scale 0 to 100, 0 no effect, 100 complete control)
5: Plant response rating, Dayflower, VA [1, 13] | Plant response rating, Barley, Winter ([11]; Preemergence, 125 g ai/ha, scale 0 to 100 (0 no effect, 100 complete control))
15: Plant response rating, Dayflower, VA [1, 18]
85: Plant response rating, Sandbur [4, 19] | Plant response rating, Arrowleaf Sida [8, 15] | Plant response rating, Waterhemp_RES1 [9, 21]
70: Plant response rating, Soybean [3, 19] | Plant response rating, Sandbur [4, 14] | Plant response rating, Waterhemp_RES2 [10, 26] | Plant response rating, Waterhemp_RES2 [10, 21]
10: Plant response rating, Dayflower, VA [1, 16] | Plant response rating, Barley, Winter ([11]; Postemergence, 250 g ai/ha, scale 0 to 100 (0 no effect, 100 complete control))
